Assay [1] deals with T1, Peroxisome proliferator-activated receptor gamma (Homo sapiens) (UniProt P37231).
T1 sequence (whole entry): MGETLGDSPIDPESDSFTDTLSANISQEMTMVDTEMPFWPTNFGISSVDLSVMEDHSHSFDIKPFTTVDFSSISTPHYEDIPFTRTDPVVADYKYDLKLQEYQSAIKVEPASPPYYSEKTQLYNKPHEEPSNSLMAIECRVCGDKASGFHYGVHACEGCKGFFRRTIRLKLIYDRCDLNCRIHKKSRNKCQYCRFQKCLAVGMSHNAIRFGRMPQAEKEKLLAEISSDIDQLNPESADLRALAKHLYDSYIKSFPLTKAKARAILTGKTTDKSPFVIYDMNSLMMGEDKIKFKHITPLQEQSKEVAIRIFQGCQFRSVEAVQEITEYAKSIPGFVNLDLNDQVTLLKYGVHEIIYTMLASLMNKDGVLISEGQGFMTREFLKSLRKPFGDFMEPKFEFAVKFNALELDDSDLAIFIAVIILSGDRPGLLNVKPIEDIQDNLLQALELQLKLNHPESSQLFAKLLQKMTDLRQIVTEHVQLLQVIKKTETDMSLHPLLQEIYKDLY
The assay can be described thus: Antagonist activity at PPARgamma expressed in african green monkey CV1 cells co-expressing PPRE by luciferase reporter gene assay. The format is functional, cell-based. The conditions noted are these: CV-1. For orientation: Reporter assays use an easily measured gene product as a stand-in for the process of interest.

Assay [2] has as its target Oxysterols receptor LXR-beta (Homo sapiens) (UniProt P55055). The experiment in a line: Agonist activity at LXRbeta expressed in african green monkey CV1 cells co-expressing LXRE by luciferase reporter gene assay. It counts as functional, cell-based. The conditions noted are these: CV-1.
Assay [3] addresses T2, Peroxisome proliferator-activated receptor alpha (Homo sapiens) (UniProt Q07869).
T2 sequence (whole entry): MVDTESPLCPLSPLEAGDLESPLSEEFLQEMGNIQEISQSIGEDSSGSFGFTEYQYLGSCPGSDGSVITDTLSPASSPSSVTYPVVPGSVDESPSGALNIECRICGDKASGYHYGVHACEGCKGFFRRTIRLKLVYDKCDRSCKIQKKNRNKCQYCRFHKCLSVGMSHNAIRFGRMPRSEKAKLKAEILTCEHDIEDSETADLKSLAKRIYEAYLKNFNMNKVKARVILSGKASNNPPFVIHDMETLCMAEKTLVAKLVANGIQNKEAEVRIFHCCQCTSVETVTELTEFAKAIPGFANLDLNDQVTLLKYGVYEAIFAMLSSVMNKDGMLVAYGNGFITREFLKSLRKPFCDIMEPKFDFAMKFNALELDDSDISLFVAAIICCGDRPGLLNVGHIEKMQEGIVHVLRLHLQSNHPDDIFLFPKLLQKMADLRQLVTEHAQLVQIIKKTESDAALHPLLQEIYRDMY
The experiment in a line: Agonist activity at PPARalpha expressed in african green monkey CV1 cells co-expressing MH100 up to 10 uM by luciferase reporter gene assay relative to control. The format is functional, cell-based. The conditions noted are these: CV-1.

Assay [4] addresses Retinoic acid receptor RXR-alpha (Homo sapiens) (UniProt P19793). The experiment in a line: Agonist activity at RXRalpha-LBD expressed in african green monkey CV1 cells co-expressing MH100 up to 10 uM by luciferase reporter gene assay relative to control. Particulars: CV-1. It counts as functional, cell-based.
Assay [5] deals with T3, Progesterone receptor (Homo sapiens) (UniProt P06401).
T3 sequence (whole entry): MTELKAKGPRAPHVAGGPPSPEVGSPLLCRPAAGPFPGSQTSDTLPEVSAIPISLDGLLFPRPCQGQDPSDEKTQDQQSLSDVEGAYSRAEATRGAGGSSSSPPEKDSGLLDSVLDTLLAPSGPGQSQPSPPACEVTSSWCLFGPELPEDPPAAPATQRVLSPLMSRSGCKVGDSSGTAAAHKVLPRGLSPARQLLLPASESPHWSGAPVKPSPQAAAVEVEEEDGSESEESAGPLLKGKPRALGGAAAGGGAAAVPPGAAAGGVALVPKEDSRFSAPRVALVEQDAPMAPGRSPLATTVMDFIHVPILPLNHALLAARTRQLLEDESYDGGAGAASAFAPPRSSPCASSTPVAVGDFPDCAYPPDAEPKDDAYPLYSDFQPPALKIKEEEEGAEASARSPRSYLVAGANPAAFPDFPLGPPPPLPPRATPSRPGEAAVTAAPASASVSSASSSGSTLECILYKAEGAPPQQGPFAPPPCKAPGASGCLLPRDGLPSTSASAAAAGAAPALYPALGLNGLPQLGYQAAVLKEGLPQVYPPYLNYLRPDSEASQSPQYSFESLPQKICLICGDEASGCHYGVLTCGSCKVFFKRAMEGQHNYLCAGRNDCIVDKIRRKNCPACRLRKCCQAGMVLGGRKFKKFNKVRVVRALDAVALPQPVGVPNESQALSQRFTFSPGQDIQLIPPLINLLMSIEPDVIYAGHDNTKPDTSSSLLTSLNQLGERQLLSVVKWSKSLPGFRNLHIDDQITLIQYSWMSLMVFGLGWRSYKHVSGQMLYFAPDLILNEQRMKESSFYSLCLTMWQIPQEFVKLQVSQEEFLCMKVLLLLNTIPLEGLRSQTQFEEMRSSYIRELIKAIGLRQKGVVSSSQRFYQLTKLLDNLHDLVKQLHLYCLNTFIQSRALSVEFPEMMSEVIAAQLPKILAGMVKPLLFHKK
The assay can be described thus: Agonist activity at gal-PR expressed in african green monkey CV1 cells co-expressing MH100 up to 10 uM by luciferase reporter gene assay relative to control. The conditions noted are these: CV-1. The format is functional, cell-based.

Another assay relates to Mus musculus. The experiment in a line: Reduction of plasma triglyceride level in western diet-induced hyperlipidemia LDLR knockout mouse model at 3 mg/kg, po administered for 6 weeks. It counts as functional. The arrangement: scale not given: the % may be the effect or the level left.

Each structure is given as a SMILES string. Activity calls are given as the source filed them. No cut-off for these calls is given here.

Sequence of Retinoic acid receptor RXR-alpha (Homo sapiens) (P19793 whole entry, the tested form may be a part): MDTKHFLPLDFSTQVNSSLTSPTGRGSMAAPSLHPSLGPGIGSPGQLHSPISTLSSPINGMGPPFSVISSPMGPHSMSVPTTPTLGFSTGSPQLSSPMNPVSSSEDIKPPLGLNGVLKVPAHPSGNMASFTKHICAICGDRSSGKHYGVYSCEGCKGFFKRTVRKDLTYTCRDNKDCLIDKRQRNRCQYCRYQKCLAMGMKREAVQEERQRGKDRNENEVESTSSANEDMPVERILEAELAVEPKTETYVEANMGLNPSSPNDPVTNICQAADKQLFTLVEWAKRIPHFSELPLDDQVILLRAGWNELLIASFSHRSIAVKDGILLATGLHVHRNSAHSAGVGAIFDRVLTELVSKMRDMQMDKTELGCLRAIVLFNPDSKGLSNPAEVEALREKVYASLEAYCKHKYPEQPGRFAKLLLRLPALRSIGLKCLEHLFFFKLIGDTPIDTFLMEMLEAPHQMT
Sequence of Oxysterols receptor LXR-beta (Homo sapiens) (P55055 whole entry): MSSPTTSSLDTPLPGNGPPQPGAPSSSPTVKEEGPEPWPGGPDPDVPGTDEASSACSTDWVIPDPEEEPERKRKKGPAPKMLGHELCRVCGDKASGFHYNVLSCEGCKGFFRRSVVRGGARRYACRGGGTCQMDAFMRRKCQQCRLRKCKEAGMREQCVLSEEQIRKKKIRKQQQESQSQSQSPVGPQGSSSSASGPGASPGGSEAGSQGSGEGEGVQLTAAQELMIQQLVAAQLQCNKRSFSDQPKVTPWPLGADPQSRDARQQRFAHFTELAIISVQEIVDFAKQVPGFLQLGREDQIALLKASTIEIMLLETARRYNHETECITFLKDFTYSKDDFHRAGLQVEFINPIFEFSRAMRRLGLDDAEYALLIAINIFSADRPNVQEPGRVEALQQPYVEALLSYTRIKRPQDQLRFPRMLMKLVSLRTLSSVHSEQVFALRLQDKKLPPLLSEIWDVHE

For `CC(C)OC(=O)C1=CN(C(=O)c2ccc(F)c(F)c2)CC(C)(C)c2c1[nH]c1ccccc21` [TUROFEXORATE ISOPROPYL], the outcome in assay [1], in assay [2], in assay [3], in assay [4] and in assay [5] was inactive. The Activity in the assay with Mus musculus is listed as 39%.

Source of the values: ChEMBL document CHEMBL1140941 (J Med Chem, 2009).
